Reference: ChEMBL document CHEMBL5465560, “Selectivity Literature for EUbOPEN Chemogenomic Library” (2024)
Values belong to the compound of their own block, whether it stands above or below them.

Legend:
[1] = biological target: Protein polybromo-1 (Homo sapiens) (UniProt Q86U86); experiment: Selectivity interaction (Human bromodomain panel (DSF assay)) EUB0000233b PBRM1
[2] = biological target: LIM domain kinase 2 (Homo sapiens) (UniProt P53671); experiment: Selectivity interaction (KinomeScan (DiscoverX)) EUB0000607a LIMK2; conditions: at 10 µM
LIM domain kinase 2 (Homo sapiens), sequence (P53671 whole entry, looked up, the tested form may be a part): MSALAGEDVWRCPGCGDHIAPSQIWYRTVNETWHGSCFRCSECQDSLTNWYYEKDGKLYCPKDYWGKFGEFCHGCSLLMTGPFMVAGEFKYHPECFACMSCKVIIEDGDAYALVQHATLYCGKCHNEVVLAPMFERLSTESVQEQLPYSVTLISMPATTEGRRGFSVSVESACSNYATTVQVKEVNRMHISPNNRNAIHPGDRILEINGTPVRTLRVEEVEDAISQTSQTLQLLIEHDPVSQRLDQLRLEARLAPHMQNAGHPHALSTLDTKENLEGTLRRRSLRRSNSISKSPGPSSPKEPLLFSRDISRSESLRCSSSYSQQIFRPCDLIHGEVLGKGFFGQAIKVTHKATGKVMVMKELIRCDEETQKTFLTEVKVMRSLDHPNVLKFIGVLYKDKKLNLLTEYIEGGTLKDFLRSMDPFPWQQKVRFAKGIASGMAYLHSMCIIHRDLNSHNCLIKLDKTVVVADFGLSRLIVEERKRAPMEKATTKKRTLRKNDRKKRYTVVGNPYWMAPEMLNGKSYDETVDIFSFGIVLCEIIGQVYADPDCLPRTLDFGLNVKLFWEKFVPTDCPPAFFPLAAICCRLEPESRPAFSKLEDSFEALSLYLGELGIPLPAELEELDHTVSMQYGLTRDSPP

[3] = biological target: Mitogen-activated protein kinase 8 (Homo sapiens, UniProt P45983); experiment: Selectivity interaction (ActivX KiNativ screen (kinase selectivity in THP-1 cell lysates)) EUB0000639a MAPK8; type: subcellular; conditions: lysate
Mitogen-activated protein kinase 8, sequence (P45983 whole entry): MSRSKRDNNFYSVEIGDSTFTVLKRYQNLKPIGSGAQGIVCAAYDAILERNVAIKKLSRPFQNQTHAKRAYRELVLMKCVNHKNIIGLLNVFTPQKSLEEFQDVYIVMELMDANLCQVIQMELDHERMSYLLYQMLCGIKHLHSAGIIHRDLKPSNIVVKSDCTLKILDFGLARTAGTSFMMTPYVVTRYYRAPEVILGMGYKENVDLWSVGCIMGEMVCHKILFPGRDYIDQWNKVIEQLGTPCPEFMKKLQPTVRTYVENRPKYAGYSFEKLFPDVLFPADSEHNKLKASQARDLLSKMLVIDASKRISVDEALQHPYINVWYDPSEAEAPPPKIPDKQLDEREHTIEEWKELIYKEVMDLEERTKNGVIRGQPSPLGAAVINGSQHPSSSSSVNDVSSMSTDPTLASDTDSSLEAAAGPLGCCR

[4] = biological target: Casein kinase II subunit alpha' (Homo sapiens) (UniProt P19784); experiment: Selectivity interaction (ProQinase) EUB0000171b CSNK2A2
Casein kinase II subunit alpha' (Homo sapiens), sequence (P19784 whole entry, looked up): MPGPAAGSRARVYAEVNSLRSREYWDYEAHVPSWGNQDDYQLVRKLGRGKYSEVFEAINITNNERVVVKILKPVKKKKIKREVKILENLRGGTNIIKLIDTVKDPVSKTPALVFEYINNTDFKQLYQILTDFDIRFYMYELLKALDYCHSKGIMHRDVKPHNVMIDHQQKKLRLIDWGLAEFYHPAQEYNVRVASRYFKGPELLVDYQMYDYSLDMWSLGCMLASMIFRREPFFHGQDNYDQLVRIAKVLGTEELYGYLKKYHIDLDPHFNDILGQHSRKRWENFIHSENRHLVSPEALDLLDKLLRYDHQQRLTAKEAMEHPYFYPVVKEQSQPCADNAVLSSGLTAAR

[5] = biological target: cAMP-dependent protein kinase catalytic subunit alpha (Homo sapiens, UniProt P17612); experiment: Selectivity interaction (KinomeScan (DiscoverX)) EUB0000045b PRKACA
[6] = biological target: Beta-1 adrenergic receptor (Homo sapiens, UniProt P08588); experiment: Selectivity interaction (GPCR panel (PDSP screen)) EUB0001079a ADRB1; conditions: at 10 µM
Beta-1 adrenergic receptor, sequence (P08588 whole entry, looked up): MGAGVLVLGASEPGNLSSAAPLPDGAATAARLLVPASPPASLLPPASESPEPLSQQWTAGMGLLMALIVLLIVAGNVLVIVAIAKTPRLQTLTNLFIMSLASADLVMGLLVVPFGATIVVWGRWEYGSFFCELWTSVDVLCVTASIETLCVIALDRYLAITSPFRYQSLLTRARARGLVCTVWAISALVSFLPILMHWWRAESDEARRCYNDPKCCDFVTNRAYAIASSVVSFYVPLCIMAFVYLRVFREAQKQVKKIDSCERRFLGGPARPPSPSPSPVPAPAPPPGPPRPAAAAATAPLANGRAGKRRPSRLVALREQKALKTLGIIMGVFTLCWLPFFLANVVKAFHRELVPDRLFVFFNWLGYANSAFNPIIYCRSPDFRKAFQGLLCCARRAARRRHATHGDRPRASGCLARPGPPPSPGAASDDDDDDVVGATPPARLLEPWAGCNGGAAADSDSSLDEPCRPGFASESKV

[7] = biological target: Ribosomal protein S6 kinase alpha-6 (Homo sapiens, UniProt Q9UK32); experiment: Selectivity interaction (KinomeScan (DiscoverX)) EUB0001079a RPS6KA6; conditions: at 1 µM
[8] = biological target: Myosin-IIIa (Homo sapiens) (UniProt Q8NEV4); conditions: at 10 µM
Myosin-IIIa (Homo sapiens), sequence (Q8NEV4 whole entry): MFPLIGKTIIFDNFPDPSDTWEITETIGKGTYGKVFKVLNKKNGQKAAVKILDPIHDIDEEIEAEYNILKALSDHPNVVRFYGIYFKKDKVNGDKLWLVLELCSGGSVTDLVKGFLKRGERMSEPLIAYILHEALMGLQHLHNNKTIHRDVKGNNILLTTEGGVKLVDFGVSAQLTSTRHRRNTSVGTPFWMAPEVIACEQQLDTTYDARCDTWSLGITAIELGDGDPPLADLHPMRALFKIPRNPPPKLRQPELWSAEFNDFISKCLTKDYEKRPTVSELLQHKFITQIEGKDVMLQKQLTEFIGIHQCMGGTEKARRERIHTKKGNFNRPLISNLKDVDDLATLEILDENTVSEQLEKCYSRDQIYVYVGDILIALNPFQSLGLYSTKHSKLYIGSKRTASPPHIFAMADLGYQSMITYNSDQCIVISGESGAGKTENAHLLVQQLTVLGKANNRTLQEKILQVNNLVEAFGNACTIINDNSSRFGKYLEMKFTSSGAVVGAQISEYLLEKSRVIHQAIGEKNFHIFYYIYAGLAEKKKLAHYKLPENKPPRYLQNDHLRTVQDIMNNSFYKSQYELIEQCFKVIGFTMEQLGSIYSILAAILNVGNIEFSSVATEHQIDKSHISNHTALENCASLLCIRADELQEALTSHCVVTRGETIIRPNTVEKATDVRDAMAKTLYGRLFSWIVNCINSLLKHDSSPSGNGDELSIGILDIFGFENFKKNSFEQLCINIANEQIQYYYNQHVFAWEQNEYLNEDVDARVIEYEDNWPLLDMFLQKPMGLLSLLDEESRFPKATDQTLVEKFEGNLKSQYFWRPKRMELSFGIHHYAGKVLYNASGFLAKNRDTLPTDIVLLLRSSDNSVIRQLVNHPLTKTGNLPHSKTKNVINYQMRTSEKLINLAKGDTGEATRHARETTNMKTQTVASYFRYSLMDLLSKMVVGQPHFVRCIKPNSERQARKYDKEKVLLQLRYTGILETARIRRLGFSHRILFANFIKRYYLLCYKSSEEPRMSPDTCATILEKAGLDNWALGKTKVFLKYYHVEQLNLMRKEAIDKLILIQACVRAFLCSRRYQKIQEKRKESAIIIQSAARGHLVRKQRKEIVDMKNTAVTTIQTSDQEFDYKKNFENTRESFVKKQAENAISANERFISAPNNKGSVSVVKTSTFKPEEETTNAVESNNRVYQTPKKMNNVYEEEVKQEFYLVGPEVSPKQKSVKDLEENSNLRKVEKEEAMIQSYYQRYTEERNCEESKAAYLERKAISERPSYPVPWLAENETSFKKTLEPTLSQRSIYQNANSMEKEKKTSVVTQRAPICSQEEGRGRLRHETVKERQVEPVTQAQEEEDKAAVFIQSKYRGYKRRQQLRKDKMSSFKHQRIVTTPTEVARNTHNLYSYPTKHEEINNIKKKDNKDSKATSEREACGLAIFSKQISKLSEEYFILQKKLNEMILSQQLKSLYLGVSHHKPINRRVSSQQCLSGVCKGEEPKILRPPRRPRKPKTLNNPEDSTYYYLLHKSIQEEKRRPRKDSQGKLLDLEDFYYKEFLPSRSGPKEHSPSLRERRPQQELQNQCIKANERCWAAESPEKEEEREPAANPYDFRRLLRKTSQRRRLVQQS

[9] = tested on: T1, Receptor-type tyrosine-protein kinase FLT3 (Homo sapiens), P36888 [K663Q]; conditions: at 10 µM
T1 sequence (whole entry): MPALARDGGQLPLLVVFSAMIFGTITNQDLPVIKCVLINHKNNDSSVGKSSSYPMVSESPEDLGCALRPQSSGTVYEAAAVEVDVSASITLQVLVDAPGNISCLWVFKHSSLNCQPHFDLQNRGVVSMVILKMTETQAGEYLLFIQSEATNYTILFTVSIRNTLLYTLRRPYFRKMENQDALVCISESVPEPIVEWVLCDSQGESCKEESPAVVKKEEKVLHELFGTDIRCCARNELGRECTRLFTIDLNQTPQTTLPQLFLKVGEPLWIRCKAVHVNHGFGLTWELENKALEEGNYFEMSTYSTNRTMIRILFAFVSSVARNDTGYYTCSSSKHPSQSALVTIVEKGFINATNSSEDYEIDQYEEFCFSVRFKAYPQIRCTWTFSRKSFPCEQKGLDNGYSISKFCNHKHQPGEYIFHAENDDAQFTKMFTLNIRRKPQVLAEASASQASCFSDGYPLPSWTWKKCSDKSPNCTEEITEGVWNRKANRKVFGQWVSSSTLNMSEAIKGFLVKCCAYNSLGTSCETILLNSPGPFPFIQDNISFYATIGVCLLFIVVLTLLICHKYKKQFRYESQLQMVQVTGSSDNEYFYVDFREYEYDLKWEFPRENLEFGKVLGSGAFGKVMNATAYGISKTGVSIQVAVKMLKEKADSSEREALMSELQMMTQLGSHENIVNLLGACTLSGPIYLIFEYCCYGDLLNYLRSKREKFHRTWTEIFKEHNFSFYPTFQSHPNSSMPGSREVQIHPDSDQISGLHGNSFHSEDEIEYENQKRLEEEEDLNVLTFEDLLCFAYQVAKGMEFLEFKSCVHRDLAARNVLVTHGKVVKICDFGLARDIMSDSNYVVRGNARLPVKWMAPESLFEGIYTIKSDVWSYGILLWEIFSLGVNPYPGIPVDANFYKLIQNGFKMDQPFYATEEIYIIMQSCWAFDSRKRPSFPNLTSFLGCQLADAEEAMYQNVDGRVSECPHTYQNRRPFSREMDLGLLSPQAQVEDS

[10] = biological target: Death-associated protein kinase 1 (Homo sapiens, UniProt P53355); experiment: Selectivity interaction (KinomeScan (DiscoverX)) EUB0000618a DAPK1; conditions: at 10 µM
Death-associated protein kinase 1, sequence (P53355 whole entry, looked up): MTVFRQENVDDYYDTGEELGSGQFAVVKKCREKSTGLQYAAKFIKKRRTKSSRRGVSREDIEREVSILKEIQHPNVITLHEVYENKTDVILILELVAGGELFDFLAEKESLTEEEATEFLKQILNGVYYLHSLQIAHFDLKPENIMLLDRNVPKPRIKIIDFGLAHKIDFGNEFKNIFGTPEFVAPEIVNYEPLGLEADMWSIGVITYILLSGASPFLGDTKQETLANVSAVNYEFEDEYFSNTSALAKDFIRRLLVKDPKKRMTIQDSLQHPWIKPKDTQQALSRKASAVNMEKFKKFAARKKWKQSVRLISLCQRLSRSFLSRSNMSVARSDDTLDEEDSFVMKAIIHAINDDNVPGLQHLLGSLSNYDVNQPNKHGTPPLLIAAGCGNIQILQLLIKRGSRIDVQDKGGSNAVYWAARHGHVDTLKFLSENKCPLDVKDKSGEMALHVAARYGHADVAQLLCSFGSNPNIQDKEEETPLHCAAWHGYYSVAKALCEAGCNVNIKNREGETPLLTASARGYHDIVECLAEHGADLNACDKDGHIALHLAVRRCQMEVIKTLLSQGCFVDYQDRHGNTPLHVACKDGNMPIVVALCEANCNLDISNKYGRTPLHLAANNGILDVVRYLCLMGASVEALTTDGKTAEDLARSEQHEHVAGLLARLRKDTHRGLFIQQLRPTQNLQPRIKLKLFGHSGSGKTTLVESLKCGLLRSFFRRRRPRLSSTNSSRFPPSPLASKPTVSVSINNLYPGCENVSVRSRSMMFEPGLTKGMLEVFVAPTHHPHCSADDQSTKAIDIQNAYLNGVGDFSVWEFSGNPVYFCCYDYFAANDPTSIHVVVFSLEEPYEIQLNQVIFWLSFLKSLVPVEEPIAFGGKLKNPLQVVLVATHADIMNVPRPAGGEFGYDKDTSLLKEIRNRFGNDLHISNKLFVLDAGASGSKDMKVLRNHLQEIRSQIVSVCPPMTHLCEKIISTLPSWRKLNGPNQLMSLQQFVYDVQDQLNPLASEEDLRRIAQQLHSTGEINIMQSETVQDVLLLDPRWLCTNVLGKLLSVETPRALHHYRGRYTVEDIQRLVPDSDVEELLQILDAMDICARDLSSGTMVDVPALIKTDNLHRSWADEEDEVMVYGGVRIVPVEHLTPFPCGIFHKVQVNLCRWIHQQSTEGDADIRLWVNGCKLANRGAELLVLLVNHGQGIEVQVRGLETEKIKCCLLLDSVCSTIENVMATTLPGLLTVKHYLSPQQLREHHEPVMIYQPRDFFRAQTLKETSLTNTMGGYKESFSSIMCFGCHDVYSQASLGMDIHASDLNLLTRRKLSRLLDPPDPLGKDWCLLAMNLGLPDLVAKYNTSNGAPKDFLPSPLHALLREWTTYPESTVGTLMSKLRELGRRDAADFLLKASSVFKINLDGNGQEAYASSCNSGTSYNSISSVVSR

[11] = biological target: T2, Tyrosine-protein kinase ITK/TSK (Homo sapiens) (UniProt Q08881); experiment: Selectivity interaction (KinomeScan (DiscoverX)) EUB0001619a ITK; conditions: at 1 µM
T2 sequence (whole entry): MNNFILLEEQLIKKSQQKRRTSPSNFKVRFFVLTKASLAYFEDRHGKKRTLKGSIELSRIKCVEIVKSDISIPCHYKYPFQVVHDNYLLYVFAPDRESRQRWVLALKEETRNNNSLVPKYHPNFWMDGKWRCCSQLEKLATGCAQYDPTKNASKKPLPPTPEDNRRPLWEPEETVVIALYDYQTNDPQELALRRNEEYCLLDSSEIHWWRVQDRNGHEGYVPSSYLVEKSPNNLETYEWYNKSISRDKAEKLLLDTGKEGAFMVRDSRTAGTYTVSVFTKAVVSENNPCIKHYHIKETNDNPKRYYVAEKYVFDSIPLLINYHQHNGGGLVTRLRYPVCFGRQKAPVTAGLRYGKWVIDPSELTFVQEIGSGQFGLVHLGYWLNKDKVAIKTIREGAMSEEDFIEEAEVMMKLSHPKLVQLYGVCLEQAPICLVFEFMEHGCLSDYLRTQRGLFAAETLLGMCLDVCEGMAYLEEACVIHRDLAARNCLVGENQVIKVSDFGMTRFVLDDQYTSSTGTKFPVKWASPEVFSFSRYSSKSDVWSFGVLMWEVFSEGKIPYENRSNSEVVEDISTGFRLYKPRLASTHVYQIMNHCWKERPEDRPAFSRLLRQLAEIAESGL

[12] = biological target: T3, Phosphatidylinositol 5-phosphate 4-kinase type-2 gamma (Homo sapiens) (UniProt Q8TBX8); experiment: Selectivity interaction (KinomeScan (DiscoverX)) EUB0001619a PIP4K2C; conditions: at 1 µM
T3 sequence (whole entry): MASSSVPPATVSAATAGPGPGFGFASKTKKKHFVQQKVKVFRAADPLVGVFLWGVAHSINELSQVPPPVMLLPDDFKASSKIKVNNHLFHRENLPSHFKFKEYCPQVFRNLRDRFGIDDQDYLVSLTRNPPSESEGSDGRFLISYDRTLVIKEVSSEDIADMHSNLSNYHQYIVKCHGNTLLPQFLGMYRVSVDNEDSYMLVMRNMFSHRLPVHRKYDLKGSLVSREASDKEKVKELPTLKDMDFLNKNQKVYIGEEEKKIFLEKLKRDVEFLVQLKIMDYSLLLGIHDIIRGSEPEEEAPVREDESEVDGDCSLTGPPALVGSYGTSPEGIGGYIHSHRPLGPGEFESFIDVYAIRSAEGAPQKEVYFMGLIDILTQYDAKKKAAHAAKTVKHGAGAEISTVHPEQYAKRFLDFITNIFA

[13] = biological target: 5'-AMP-activated protein kinase catalytic subunit alpha-2 (Homo sapiens) (UniProt P54646); experiment: Selectivity interaction (ActivX KiNativ screen (ex vivo kinase selectivity in human PBMCs)) EUB0001619a PRKAA2; type: cell-based; conditions: PBMC, at 1 µM

dTM [1]: < 2 K
Compound: CN(C)CCCOc1ccc(-c2cc(NCCCn3cccn3)nc(S(C)(=O)=O)n2)cc1

Compound: CNC(=O)Nc1ccc(-c2nc(N3CC4CCC(C3)O4)c3cnn(C4CCC5(CC4)OCCO5)c3n2)cc1
% of control [2]: 88%

% of inhibition ([3]; at 0.01 µM): 13.3%
% of inhibition ([3]; at 0.04 µM): -1.4%
% of inhibition ([3]; at 0.2 µM): 1.6%
% of inhibition ([3]; at 1 µM): 27.7%
% of inhibition ([3]; at 5 µM): 57.5%
Compound: CC[C@@H]1[C@H](F)C(=O)N[C@@H]1COc1nccc2cc(C(N)=O)c(OC)cc12 [ZIMLOVISERTIB]

% of control ([4]; at 1 µM): 80%
% of control ([4]; at 5 µM): 52%
Compound: C=CC(=O)Nc1cccc(C(=O)Nc2ccc(Nc3cc(-c4[nH]c(SC)nc4C)ccn3)cc2)c1

Compound: C=CC(=O)Nc1cc(-n2c(=O)ccc3cnc4ccc(-c5ccc(NS(C)(=O)=O)cc5)cc4c32)ccc1C
% of control ([5]; at 1 µM): 83%
% of control ([5]; at 10 µM): 100%

Compound: Nc1cnc(N2CCc3cc(S(=O)(=O)Nc4c(F)cc(Cl)cc4F)cc(N4CCCC4=O)c32)nc1 [TP-020n]
% of inhibition [6]: 8.84%
% of control [7]: 86%

Compound: Cc1cc([C@@H](C)Nc2ccccc2C(=O)O)c2nc(N3CCOCC3)cc(=O)n2c1 [AZD-6482]
% of control [8]: 97%
% of control [9]: 13%

Compound: O[C@H]1CC[C@H](Nc2ncc3nc(Nc4c(F)cc(F)cc4F)n([C@H]4CCOC4)c3n2)CC1
% of control [10]: 95%

Compound: N#Cc1cccc(-c2c[nH]c3ncnc(N4CCOCC4)c23)c1
% of control [11]: 100%
% of control [12]: 21%
% of inhibition [13]: 33%
